Experiment [1] addresses CDK2/CycA2 kinase (Homo sapiens, UniProt P24941). As to the kind of experiment: Determination of inhibitory activity against CDK2/CycA2 kinase. It counts as biochemical. As to conditions: for IC50: CDK2/CycA2 10 µM ATP (kinase) IC50 (nM); for pIC50: read-out: CDK2/CycA2 10 µM ATP (kinase) IC50. The protocol:
1.1 Determination of inhibitory activity against CDK2/CycA2 kinase
(§1) CDK2/CycA2 kinase solution (concentration: 0.078 ng/µL) was added to assay wells at 6 µL/well, and different compounds dissolved in DMSO were added to the assay wells separately using a nanoliter pipettor, such that the final concentrations of the compounds were 1000 nM to 0.244 nM. The wells were set in duplicate, and a control well was set. After a 30-min incubation of the above system, ATP (concentration: 50 µM or 5000 µM) was mixed with ULight-Myelin Basic Protein Peptide substrate (manufacturer: PerkinElmer, concentration: 0.25 µM) in a ratio of 1:1, and the mixture was added to the assay wells at 4 µL/well. The resultant mixture was left to react at room temperature for 2 h, and then 5 µL of EDTA was added to terminate the reaction, followed by the addition of 5 µL of a detection antibody (manufacturer: PerkinElmer, concentration: 8 nM). The mixture was incubated at room temperature for 1 h. The assay was performed using a PerkinElmer Envision multifunctional microplate reader (excitation: 320 nm, emission: 615 nm/665 nm), and IC50 was calculated by four-parameter fitting.

Experiment [2] concerns the target CDK2 CycE1 kinase (Homo sapiens, UniProt P24941). As to the kind of experiment: Determination of inhibitory activity against CDK2 CycE1 kinase. It counts as biochemical. The method, then: 1.2 Determination of inhibitory activity against CDK2 CycE1 kinase
as §1, with “CDK2 CycEl” for “CDK2/CycA2”, “0.015” for “0.078”, “300” for “1000”, “0.07” for “0.244”, “fitting. […] Table 1: Inhibitory activity of compound against CDK2 CycA2 and CDK2 CycEl kinases” for “fitting.”

[3] abbreviates: read-out: CDK2/CycE1 10 µM ATP (kinase) IC50.

pIC50: −log10 of the molar value. Where two headings read alike, the source gives them in different places. Where only a bound is given, the exact number is not on record here.

For `CC(C)(CCO)NC(=O)OC1CCC(c2cc(Nc3ccc4c(c3)CS(=O)(=O)C4)[nH]n2)C1` (centres unmarked) [Compound 6], the IC50 in experiment [1] was in the range of 10 to 50 nM. Besides, the pIC50 in experiment [2] (10 µM ATP (kinase)) is more than 8.00. For the compound `CC(C)NC(=O)OC1CCC(c2cc(Nc3ccc4c(c3)C[S+]([O-])C4)n[nH]2)C1` (centres unmarked) [Compound 23], the pIC50 in experiment [2] (setting [3]) was more than 8.00. Compound `CC1(C)CCN1C(=O)OC1CCC(c2cc(Nc3ccc4c(c3)C[S+]([O-])C4)[nH]n2)C1` (centres unmarked) [Compound 30] returned a half-maximal inhibitory concentration (IC50) in experiment [1] of 10 to 50 nM. For the same compound, in experiment [2] (setting [3]), the pIC50 is more than 8.00.

With `CC(C)NC(=O)OC1CCC(c2cc(Nc3ccc4c(c3)C[S+]([O-])C4)n[nH]2)C1` (centres unmarked) [Compound 2], the pIC50 is 7.30 to 8.00 in experiment [1] and more than 8.00 in experiment [2] (setting [3]). Take `O=C(NC12CC(C1)C2)OC1CCC(c2cc(Nc3ccc4c(c3)C[S+]([O-])C4)n[nH]2)C1` (centres unmarked) [Compound 16]: the half-inhibitory concentration (IC50) in experiment [1] is less than 10 nM. Further, the pIC50 in experiment [2] (10 µM ATP (kinase)) is more than 8.00. For `CC(C)(C)NC(=O)OC1CCC(c2cc(Nc3ccc4c(c3)C[S+]([O-])C4)n[nH]2)C1` (centres unmarked) [Compound 14] the same measures were less than 10 nM and more than 8.00. As to `CC1(C)CCN1C(=O)OC1CCC(c2cc(Nc3ccc4c(c3)CS(=O)(=O)C4)[nH]n2)C1` (centres unmarked) [Compound 18], in experiment [1], the pIC50 was more than 8.00. In turn, `CC(C)NC(=O)OC1CCC(c2cc(Nc3cc(F)c4c(c3)CS(=O)(=O)C4)[nH]n2)C1` (centres unmarked) [Compound 11] had a half-maximal inhibitory concentration (IC50) in experiment [1] of less than 10 nM. The pIC50 in experiment [2] (10 µM ATP (kinase)) was more than 8.00. The compound `CC(C)(C)NC(=O)OC1CCC(c2cc(Nc3ccc4c(c3)CS(=O)(=O)C4)[nH]n2)C1` (centres unmarked) [Compound 4] gave an IC50 in experiment [1] of less than 10 nM. The compound further had a pIC50 in experiment [2] (10 µM ATP (kinase)) of more than 8.00.

On to `CC1(NC(=O)OC2CCC(c3cc(Nc4ccc5c(c4)C[S+]([O-])C5)[nH]n3)C2)CC1` (centres unmarked) [Compound 32], for which, in experiment [2] (setting [3]), the pIC50 is more than 8.00. Still for that read-out and setting: in the case of `CCNC(=O)OC1CCC(c2cc(Nc3ccc4c(c3)C[S+]([O-])C4)[nH]n2)C1` (centres unmarked) [Compound 37] it was 7.30 to 8.00.

For the compound `CC1(NC(=O)OC2CCC(c3cc(Nc4ccc5c(c4)C[S+]([O-])C5)[nH]n3)C2)CC1` (centres unmarked) [Compound 25], the IC50 in experiment [1] was in the range of 10 to 50 nM. This compound gave a pIC50 in experiment [2] (10 µM ATP (kinase)) of more than 8.00. For the compound `CC(C)(C)NC(=O)OC1CCC(c2cc(Nc3ccc4c(c3)C[S+]([O-])C4)n[nH]2)C1` (centres unmarked) [Compound 36], the pIC50 in experiment [2] (setting [3]) was more than 8.00. On to `O=C(NCC(F)F)OC1CCC(c2cc(Nc3ccc4c(c3)CS(=O)(=O)C4)[nH]n2)C1` (centres unmarked) [Compound 13], for which the IC50 in experiment [1] is less than 10 nM. The compound also had a pIC50 in experiment [2] (10 µM ATP (kinase)) of more than 8.00. With `CC(NC(=O)OC1CCC(c2cc(Nc3ccc4c(c3)CS(=O)(=O)C4)[nH]n2)C1)C1CC1` (centres unmarked) [Compound 3], the pIC50 in experiment [1] and in experiment [2] (setting [3]) was more than 8.00 each time. On to `O=C(NC1CC1F)OC1CCC(c2cc(Nc3ccc4c(c3)C[S+]([O-])C4)[nH]n2)C1` (centres unmarked) [Compound 41], for which the pIC50 in experiment [2] (10 µM ATP (kinase)) was more than 8.00. `CC1(C)CCN1C(=O)OC1CCC(c2cc(Nc3ccc4c(c3)CS(=O)(=O)C4)[nH]n2)C1` (centres unmarked) [Compound 17] returned an IC50 in experiment [1] of less than 10 nM. This compound gave a pIC50 in experiment [2] (10 µM ATP (kinase)) of more than 8.00.

Compound `O=C(NC1CCC1)OC1CCC(c2cc(Nc3ccc4c(c3)CS(=O)(=O)C4)[nH]n2)C1` (centres unmarked) [Compound 1] registered an IC50 in experiment [1] of less than 10 nM. In experiment [2] (10 µM ATP (kinase)), the pIC50 is more than 8.00.

As for `CC(C)NC(=O)OC1CCC(c2cc(Nc3ccc4c(c3)CCS4(=O)=O)n[nH]2)C1` (centres unmarked) [Compound 15], the pIC50 in experiment [2] (10 µM ATP (kinase)) was more than 8.00. In turn, `CCNC(=O)OC1CCC(c2cc(Nc3ccc4c(c3)CS(=O)(=O)C4)[nH]n2)C1` (centres unmarked) [Compound 10] had an IC50 in experiment [1] of less than 10 nM. Moreover, the pIC50 in experiment [2] (10 µM ATP (kinase)) was more than 8.00. Take `O=C(NC12CC(C1)C2)OC1CCC(c2cc(Nc3ccc4c(c3)C[S+]([O-])C4)n[nH]2)C1` (centres unmarked) [Compound 33]: the pIC50 in experiment [2] (setting [3]) is more than 8.00. With `CC1CN(C)CCN1C(=O)OC1CCC(c2cc(Nc3ccc4c(c3)CS(=O)(=O)C4)[nH]n2)C1` (centres unmarked) [Compound 21], the IC50 in experiment [1] was less than 10 nM. The pIC50 in experiment [2] (10 µM ATP (kinase)) was more than 8.00. The compound `CC1(C)CCN1C(=O)OC1CCC(c2cc(Nc3ccc4c(c3)C[S+]([O-])C4)[nH]n2)C1` (centres unmarked) [Compound 26] yielded an IC50 in experiment [1] of less than 10 nM. The pIC50 in experiment [2] (10 µM ATP (kinase)) was more than 8.00. In experiment [2] (10 µM ATP (kinase)), `CCNC(=O)OC1CCC(c2cc(Nc3ccc4c(c3)C[S+]([O-])C4)[nH]n2)C1` (centres unmarked) [Compound 19] had a pIC50 of 7.30 to 8.00.

With `CC(C)(C)NC(=O)OC1CCC(c2cc(Nc3ccc4c(c3)C[S+]([O-])C4)n[nH]2)C1` (centres unmarked) [Compound 35], the pIC50 in experiment [2] (setting [3]) is more than 8.00. In experiment [1], `CC1(C)CCN1C(=O)OC1CCC(c2cc(Nc3ccc4c(c3)C[S+]([O-])C4)[nH]n2)C1` (centres unmarked) [Compound 29] came in with an IC50 of less than 10 nM. In addition, the pIC50 in experiment [2] (setting [3]) is more than 8.00. Take `O=C(NC12CC(C1)C2)OC1CCC(c2cc(Nc3ccc4c(c3)CS(=O)(=O)C4)[nH]n2)C1` (centres unmarked) [Compound 7]: the IC50 in experiment [1] was less than 10 nM. The compound also gave a pIC50 in experiment [2] (10 µM ATP (kinase)) of more than 8.00. In the case of `O=C(NC1CC1)OC1CCC(c2cc(Nc3ccc4c(c3)C[S+]([O-])C4)[nH]n2)C1` (centres unmarked) [Compound 24], the pIC50 in experiment [2] (10 µM ATP (kinase)) was 7.30 to 8.00. `CC(C)NC(=O)OC1CCC(c2cc(Nc3ccc4c(c3)C[S+]([O-])C4)n[nH]2)C1` (centres unmarked) [Compound 22]: the IC50 in experiment [1] lay within 10 to 50 nM. This compound also had a pIC50 in experiment [2] (10 µM ATP (kinase)) of more than 8.00. `O=C(NCC(F)(F)F)OC1CCC(c2cc(Nc3ccc4c(c3)CS(=O)(=O)C4)[nH]n2)C1` (centres unmarked) [Compound 12] displayed an IC50 in experiment [1] of 10 to 50 nM. Moreover, the pIC50 in experiment [2] (10 µM ATP (kinase)) is more than 8.00. `CC1CN(C)CCN1C(=O)OC1CCC(c2cc(Nc3ccc4c(c3)C[S+]([O-])C4)[nH]n2)C1` (centres unmarked) [Compound 20]: the pIC50 in experiment [2] (10 µM ATP (kinase)) is 7.30 to 8.00. Consider `COCc1cc(Nc2cc([C@H]3CC[C@@H](OC(=O)NC(C)C)C3)n[nH]2)cc2c1C(C)S(=O)(=O)C2` (some centres unmarked) [Compound 8], for which the pIC50 in experiment [2] (setting [3]) was 7.30 to 8.00. With `C[C@H](NC(=O)O[C@@H]1CC[C@H](c2cc(Nc3ccc4c(c3)CS(=O)(=O)C4)[nH]n2)C1)C1CC1` [Compound 5], the pIC50 in experiment [1] and in experiment [2] (setting [3]) was more than 8.00 throughout. In turn, `CC1(NC(=O)OC2CCC(c3cc(Nc4ccc5c(c4)C[S+]([O-])C5)[nH]n3)C2)CC1` (centres unmarked) [Compound 31] returned an IC50 in experiment [1] of less than 10 nM. For the same compound, the pIC50 in experiment [2] (setting [3]) is more than 8.00. For the compound `O=C(NC12CC(C1)C2)OC1CCC(c2cc(Nc3ccc4c(c3)C[S+]([O-])C4)n[nH]2)C1` (centres unmarked) [Compound 34], the pIC50 in experiment [2] (setting [3]) was more than 8.00.

The IC50 is the concentration that inhibits the measured activity by half. A higher IC50 goes with a need for much substance.

The values above are taken from patent publication EP4700024A1, “CYCLOPENTYLPYRAZOLAMINE DERIVATIVE AND USE THEREOF” (Chia Tai Tianqing Pharmaceutical Group Co., Ltd., priority 2023, dated 2024).
